Experimental findings from patent US20230136702A1, “Inhibitors of Human Herpesviruses” (The Governors of the University of Alberta, priority 2020, published 2023) are described below.

Structures are written as SMILES. Where two headings read alike, the source gives them in different places. Where only a bound is given, the exact number is not on record here.

The term EC50 denotes the concentration that produces a half-maximal response. The term CC50 denotes the concentration at which the toxic effect on the cells reaches its halfway point.

In data set [1] the test system is HCMV US3-6-EGFP-HCMV-AD169 strain. Kind of data set: In vitro inhibitory (antiviral) activity against HCMV, GFP reporter in MRC5 cells. Particulars: Human betaherpesvirus 5, AD169, MRC5, 96 h, read-out: HCMV Antiviral EC50 range. The class given is cell-based, Human cytomegalovirus (HCMV). On the procedure:
(§1) Exemplary compounds (e.g., as described herein) were prepared as 20 mM stock solutions with DMSO. Reference compound was ganciclovir (Sigma). Compounds were tested at 8 concentrations, 3-fold serial dilutions, in duplicate for EC50 and CC50 determinations. The highest testing concentrations of the exemplary compounds and reference compound were 40 μM and 100 μM, respectively. The final concentration of DMSO in the cell culture was 0.5%.
HCMV US3-6-EGFP-HCMV-AD169 strain was obtained from Institute Pasteur of Shanghai, CAS. The virus contains GFP as a reporter of the viral replication.
(§2) MRC5 cells (ATCC CCL-171) was obtained from the ATCC and maintained in the EMEM (Sigma) supplemented with 10% FBS (HyClone), 1% L-glutamine (Gibco), 1% NEAA (Gibco), and 1% PS (Hyclone). Reagent:
In 96-well plates, MRC5 cells were seeded at 20,000 cells per well and cultured at 37° C. and 5% C02 overnight. Next day, compounds (8 concentrations, 3-fold dilutions, in duplicate) and US3-6-EGFP-HCMV-AD169 (MOI=0.1) were added to the cells. The resulting cultures were incubated at 37° C. and 5% C02 for 4 days. Fluorescence intensity was determined by Acumen Cellista (TTP LabTech). The antiviral activity of each compound was calculated based on the inhibition of expression of GFP at each concentration normalized by the cell control (cells without virus infection or compound treatment).
(§3) Antiviral activity and cytotoxicity of the compounds were expressed as % Inhibition and % Viability, respectively, and calculated with the formulas below:
Inhibition (%)=100−(Raw dataCPD−AverageCC)/(AverageVC−AverageCC)*100
(§4) Raw dataCPD indicates the values of the compound-treated wells; AverageVC, AverageCC and AverageMC indicate the average values of the virus control (cells infected with virus, without compound treatment), cell control and medium control wells, respectively.
(§5) EC50 and CC50 values were calculated using the GraphPad Prism software.

The target in data set [2] is T1, HCMV DNA polymerase (UL54) (Human cytomegalovirus, UniProt P08546).
T1 construct: 6His (C); made in house; host or cells: Sf9 insect cells (baculovirus, pFastBac)
T1 sequence (P08546 whole entry): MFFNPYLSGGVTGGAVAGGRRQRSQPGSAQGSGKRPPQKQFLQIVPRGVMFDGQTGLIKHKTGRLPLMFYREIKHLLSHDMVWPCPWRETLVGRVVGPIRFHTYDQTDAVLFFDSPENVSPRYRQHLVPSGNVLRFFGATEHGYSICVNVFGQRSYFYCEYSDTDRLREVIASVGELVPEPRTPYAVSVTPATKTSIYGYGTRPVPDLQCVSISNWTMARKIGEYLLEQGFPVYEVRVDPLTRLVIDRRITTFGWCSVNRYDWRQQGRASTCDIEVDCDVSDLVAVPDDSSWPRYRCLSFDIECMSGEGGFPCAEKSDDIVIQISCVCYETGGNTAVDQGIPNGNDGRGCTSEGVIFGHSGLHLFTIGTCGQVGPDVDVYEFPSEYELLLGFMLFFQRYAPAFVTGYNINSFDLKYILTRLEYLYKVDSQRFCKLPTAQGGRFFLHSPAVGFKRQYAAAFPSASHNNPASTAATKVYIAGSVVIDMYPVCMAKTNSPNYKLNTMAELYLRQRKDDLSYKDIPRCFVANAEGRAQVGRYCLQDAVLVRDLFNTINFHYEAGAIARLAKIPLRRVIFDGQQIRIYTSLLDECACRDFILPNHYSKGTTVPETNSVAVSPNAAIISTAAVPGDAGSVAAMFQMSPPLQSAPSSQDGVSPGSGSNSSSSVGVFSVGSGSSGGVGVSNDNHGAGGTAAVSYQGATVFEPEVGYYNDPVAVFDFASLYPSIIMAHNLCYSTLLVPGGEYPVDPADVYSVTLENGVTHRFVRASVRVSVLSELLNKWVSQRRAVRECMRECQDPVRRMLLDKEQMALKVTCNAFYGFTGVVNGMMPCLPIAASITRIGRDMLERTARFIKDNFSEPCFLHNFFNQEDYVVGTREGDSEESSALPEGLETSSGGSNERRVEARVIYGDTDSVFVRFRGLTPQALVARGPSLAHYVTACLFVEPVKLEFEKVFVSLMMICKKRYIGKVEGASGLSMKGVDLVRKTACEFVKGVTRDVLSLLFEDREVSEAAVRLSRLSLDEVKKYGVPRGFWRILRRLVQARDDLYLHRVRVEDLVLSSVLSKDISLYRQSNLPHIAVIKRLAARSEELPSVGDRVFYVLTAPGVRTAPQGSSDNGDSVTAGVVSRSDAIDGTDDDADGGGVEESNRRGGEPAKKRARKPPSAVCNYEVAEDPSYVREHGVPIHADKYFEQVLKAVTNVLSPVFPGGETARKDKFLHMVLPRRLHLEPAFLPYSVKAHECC
As to the kind of experiment: HCMV DNA polymerase enzyme inhibition assay (ProFoldin, fluorescence). The class given is biochemical. The note with it: 37° C., duplicate, max 40 μM. How it is done: The HCMV DNA polymerase assay was developed by ProFoldin. The assay detects the formation of DNA from the DNA polymerase reaction in the presence of a DNA template, dATP and dGTP. The formation of the DNA is detected by using a fluorescence method. The fluorescence intensity increases when DNA is generated by the enzyme reaction.
A time-course experiment was performed aside the enzyme inhibition assay to ensure the assay was sensitive to the enzyme inhibition. The wells for the time-course experiment contained 1 μL of DMSO and the same reaction mixture as that in the enzyme inhibition assay. The time-course data varied between plates. The reactions were stopped when the fluorescence reached a value of about 3700 for each plate.
Exemplary solid compounds (e.g., as described herein) were dissolved in DMSO to make […] stock solutions. PFA (phosphonoformic acid or phosphonomethanoic acid) was used as a positive control. The compound mother plates were prepared at 50× concentrated compound concentrations with a 2-fold serial dilution. All the exemplary compounds except PFA were diluted in DMSO. PFA was diluted in water. The maximum compound concentration was 2 mM that gave the final concentration of 40 μM in the assay. One microliter of the 50× stock solutions was transferred into the assay plates. Three copies of assay plates were prepared, two for HCMV DNA polymerase assay and one for compound background control.
The following is the protocol for enzyme inhibition performed at 37° C.:
1. Prepared a premix composed of 35347 μL of H2O, 5220 μL of 10× assay buffer and 149 μL of 350×HCMV DNA polymerase.
2. Added 39 μL of the premix into the wells with 1 μL of the compound. Incubated the mixture for at least 5 min.
3. Added 10 μL of 5×dNTP (0.1 mM), 5×DNA template solutions into each well and incubated the solution until the fluorescence value reached a value about 3700 for the DMSO-only control wells.
4. Added 50 μL of the 1× dye into the wells.
5. Read the fluorescence at emission wavelength of 535 nm and excitation wavelength of 485 nm.
For the compound background reading, added 99 μL of water in the wells with 1 μL of compounds and read the fluorescence. […] The 0% inhibition value F0 was from the wells with DMSO (no inhibitor).
The background values were subtracted from the fluorescence reading to get the net fluorescence values. The net fluorescence values were used for calculation of the percentage inhibition.
The assay was performed in duplicate for the test article at […], 1.25, 0.625, 0.313, 0.156 and 0.078 μM. The IC50 curves were obtained by fitting the percentage inhibition values with the compound concentrations using Prism GraphPad software.

The next data set has as its target T2, hERG potassium channel (Homo sapiens, UniProt Q12809).
T2 construct: host or cells: CHO cells stably expressing hERG
As to the kind of experiment: Inhibition of hERG potassium channel, automated patch clamp (SyncroPatch 384PE) in CHO cells. It is filed as cell-based. How it is done:
This automated patch clamp method (SyncroPatch 384PE) CHO cells stably expressing hERG potassium channels from Sophion Biosciences were used for this test.
The cells were cultured in a humidified and air-controlled (5% C02) incubator at 37° C.
The CHO cells which were at least two days after plating and more than 75% confluent would be used for experiments. Before testing, cells were harvested using TrypLE and resuspended in the physiological solution at the room temperature.
For the electrophysiological recordings the following solutions were used (Table 5). The physiological solution and external solution were prepared at least one month. The intracellular solution was prepared in batches aliquoted, and stored at 4° C. until used.
Exemplary compounds (e.g., as described herein) were dissolved in 100% DMSO to obtain stock solutions for different test concentrations. Then the stock solutions were further diluted into external solution to achieve final concentrations for testing. Visual check for precipitation was conducted before testing. Final DMSO concentration in external solution was not more than 0.30% for the compounds.
From this holding potential of −80 mV, the voltage was first stepped to −50 mV for 80 ms for leak subtraction, and then stepped to +20 mV for 4800 ms to open hERG channels. After that, the voltage was stepped back down to −50 mV for 5000 ms, causing a “rebound” or tail current, which was measured and collected for data analysis. Finally, the voltage was stepped back to the holding potential (−80 mV, 1000 ms). This voltage command protocol was repeated every 20000 msec. This command protocol was performed continuously during the test (vehicle control and test compound).
hERG SyncroPatch assay was conducted at room temperature. The Setup, Prime Chip, Catch and Seal Cells, Amplifier Settings, Voltage and Application Protocols were established with Biomek Software (Nanion).
One addition of 40 μL of the vehicle was applied, followed by 300s for a baseline period. Then the doses of exemplary test compounds were added with 40 μL. The exposure of test compound at each concentration was no less than 300s. […] Five concentrations (0.494 μM, 1.48 μM, 4.44 μM, 13.33 μM and 40.00 μM) were tested for each compound. Minimum 2 replicates per concentration were obtained.
Within each well recording, percent of control values were calculated for each test compound concentration current response based on peak current in presence of reference control (current response/peak current)×100%. The Dose-Response curves were fit to the standard Hill equation as shown below:
Ipost cpd/Ipre cpd=Bottom+(Top−Bottom)/(1+10^((Log IC50−X)*HillSlope))
Where X is the logarithm of concentration, Ipost cpd/Ipre cpd is the normalized peak current amplitude, Top is 1 and Bottom is equal to 0.
Curve-fitting and IC50 calculations were performed by GraphPad Prism 5.0. If the inhibition obtained at the lowest concentration tested was over 50%, or at the highest concentration tested was less than 50%, we reported the IC50 as less than lowest concentration, or higher than highest concentration, respectively.
(The hERG channel carries a current that helps repolarise heart muscle cells.)

Data set [3] can be described thus: Cytotoxicity in MRC5 cells without virus infection (CCK8). The class given is cell-based. The note with it: human. How it is done:
as §1, §2
Cytotoxicity of the compounds was assessed under the same conditions, but without virus infection, in parallel. Cell viability was measured with CCK8 following the manufacturer's manual. CC50 values were then calculated based on cytotoxicity at the test concentrations normalized by the medium control (medium only).
as §3
Viability (%)=(Raw dataCPD−AverageMC)/(AverageCC−AverageMC)*100
as §4, §5

Setting [4] is: CHO cells stably expressing hERG, room temperature, 0.494-40.00 μM, read-out: CHO-hERG Activity Range.

T2 sequence (Q12809 whole entry): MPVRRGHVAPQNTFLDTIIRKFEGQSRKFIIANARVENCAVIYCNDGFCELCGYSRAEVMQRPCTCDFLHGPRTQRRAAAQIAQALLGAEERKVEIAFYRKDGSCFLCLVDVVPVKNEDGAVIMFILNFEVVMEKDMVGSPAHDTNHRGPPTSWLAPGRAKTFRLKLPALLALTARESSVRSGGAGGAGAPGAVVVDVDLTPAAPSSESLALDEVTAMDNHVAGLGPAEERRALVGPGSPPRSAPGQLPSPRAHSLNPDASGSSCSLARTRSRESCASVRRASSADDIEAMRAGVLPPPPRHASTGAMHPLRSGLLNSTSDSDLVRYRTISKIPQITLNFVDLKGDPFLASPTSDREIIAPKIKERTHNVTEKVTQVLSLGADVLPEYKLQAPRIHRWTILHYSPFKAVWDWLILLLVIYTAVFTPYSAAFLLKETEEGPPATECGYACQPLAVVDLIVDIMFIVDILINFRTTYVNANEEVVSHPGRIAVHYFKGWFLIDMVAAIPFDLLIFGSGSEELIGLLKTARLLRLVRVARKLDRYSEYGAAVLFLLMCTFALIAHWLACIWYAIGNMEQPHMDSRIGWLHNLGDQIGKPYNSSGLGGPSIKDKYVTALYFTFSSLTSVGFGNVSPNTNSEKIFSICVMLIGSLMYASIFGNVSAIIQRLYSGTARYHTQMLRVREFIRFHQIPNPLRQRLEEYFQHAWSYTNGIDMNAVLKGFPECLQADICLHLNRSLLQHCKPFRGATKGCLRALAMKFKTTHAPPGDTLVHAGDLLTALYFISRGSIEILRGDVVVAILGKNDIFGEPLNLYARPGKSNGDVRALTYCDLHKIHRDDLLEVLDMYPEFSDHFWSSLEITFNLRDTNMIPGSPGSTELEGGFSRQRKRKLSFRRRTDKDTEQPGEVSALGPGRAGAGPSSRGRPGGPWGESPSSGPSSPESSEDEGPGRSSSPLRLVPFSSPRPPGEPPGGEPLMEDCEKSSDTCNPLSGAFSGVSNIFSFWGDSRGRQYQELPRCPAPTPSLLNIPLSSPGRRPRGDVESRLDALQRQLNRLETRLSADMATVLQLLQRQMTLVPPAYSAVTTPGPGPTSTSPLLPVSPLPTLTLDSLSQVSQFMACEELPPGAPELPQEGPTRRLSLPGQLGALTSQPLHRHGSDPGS

Take `CC1(F)CN(C(=O)Cn2c(=O)c(C(=O)NCc3ccc(Cl)cc3)cc3nc(N4CC(=O)NC4=O)cnc32)C1` [Compound 41, N-[(4-chlorophenyl)methyl]-2-(2,4-dioxoimidazolidin-1-yl)-5-[2-(3-fluoro-3-methylazetidin-1-yl)-2-oxoethyl]-6-oxo-5,6-dihydropyrido[2,3-b]pyrazine-7-carboxamide]: the EC50 in data set [1] was greater than 1 µM. For the same compound, the IC50 in data set [2] is less than 1 µM; on hERG potassium channel (setting [4]), greater than 10 µM. In data set [3], half-maximal cytotoxicity (CC50 at 4 days) was put at 23 µM.

With `CC(C)(C(=O)O)N1CCN(c2cnc3c(cc(C(=O)NCc4ccc(Cl)cc4)c(=O)n3CC(=O)N3CC4(CC4)C3)n2)C1=O` [Compound 44, 2-[3-(5-[2-(5-azaspiro[2.3]hexan-5-yl)-2-oxoethyl]-7-{[(4-chlorophenyl)methyl]carbamoyl}-6-oxo-5,6-dihydropyrido[2,3-b]pyrazin-2-yl)-2-oxoimidazolidin-1-yl]-2-methylpropanoic acid], the concentration for a half-maximal effect (EC50) in data set [1] is less than 1 µM. Further, the IC50 in data set [2] was less than 1 µM; against hERG potassium channel, greater than 10 µM. The same compound had a CC50 at 4 days in data set [3] greater than 40 µM.

`CC1(F)CN(C(=O)Cn2c(=O)c(C(=O)NCc3ccc(Cl)cc3)cc3nc(N4CCN(CC(=O)NC#N)C4=O)cnc32)C1` [Compound 26, N-[(4-chlorophenyl)methyl]-2-{3-[2-(cyanoamino)-2-oxoethyl]-2-oxoimidazolidin-1-yl}-5-[2-(3-fluoro-3-methylazetidin-1-yl)-2-oxoethyl]-6-oxo-5,6-dihydropyrido[2,3-b]pyrazine-7-carboxamide]: the EC50 in data set [1] was greater than 1 µM. The IC50 in data set [2] is less than 1 µM; on hERG potassium channel (setting [4]), greater than 10 µM. Moreover, in data set [3], the half-maximal cytotoxic concentration (CC50) at 4 days is greater than 40 µM.

Regarding `CC1(F)CN(C(=O)Cn2c(=O)c(C(=O)NCc3ccc(Cl)cc3)cc3nc(N4CCN(CC(N)=O)C4=O)cnc32)C1` [Compound 40, 2-[3-(2-amino-2-oxoethyl)-2-oxoimidazolidin-1-yl]-N-[(4-chlorophenyl)methyl]-5-[2-(3-fluoro-3-methylazetidin-1-yl)-2-oxoethyl]-6-oxo-5,6-dihydropyrido[2,3-b]pyrazine-7-carboxamide], the 50% effective concentration (EC50) in data set [1] was greater than 1 µM. The IC50 in data set [2] is less than 1 µM; on hERG potassium channel (setting [4]) it was greater than 10 µM. Further, the 50% cytotoxic concentration (CC50) at 4 days in data set [3] is greater than 40 µM.

Turning to `CC1CCN(c2cnc3c(cc(C(=O)NCc4ccc(Cl)cc4)c(=O)n3CC(=O)N3CC(C)(F)C3)n2)C1=O` (centres unmarked) [Compound 4, N-[(4-chlorophenyl)methyl]-5-[2-(3-fluoro-3-methylazetidin-1-yl)-2-oxoethyl]-2-(3-methyl-2-oxopyrrolidin-1-yl)-6-oxo-5,6-dihydropyrido[2,3-b]pyrazine-7-carboxamide], in data set [1], the EC50 is less than 1 µM. For the same compound, the IC50 in data set [2] was less than 1 µM; at hERG potassium channel (setting [4]) it was less than 10 µM. Also, the cytotoxic concentration (CC50) at 4 days in data set [3] was greater than 40 µM.

Turning to `CC1(F)CN(C(=O)Cn2c(=O)c(C(=O)NCc3ccc(Cl)cc3)cc3nc(N4CCOC4=O)cnc32)C1` [Compound 2, N-[(4-chlorophenyl)methyl]-5-[2-(3-fluoro-3-methylazetidin-1-yl)-2-oxoethyl]-6-oxo-2-(2-oxo-1,3-oxazolidin-3-yl)-5,6-dihydropyrido[2,3-b]pyrazine-7-carboxamide], the concentration for a half-maximal effect (EC50) in data set [1] was less than 1 µM. Besides, the IC50 in data set [2] was less than 1 µM; at hERG potassium channel (setting [4]), less than 10 µM. The CC50 at 4 days in data set [3] was less than 40 µM.

Take `CN1C(=O)CN(c2cnc3c(cc(C(=O)NCc4ccc(Cl)cc4)c(=O)n3CC(=O)N3CC4(CC4)C3)n2)C1=O` [Compound 15, 5-[2-(5-azaspiro[2.3]hexan-5-yl)-2-oxoethyl]-N-[(4-chlorophenyl)methyl]-2-(3-methyl-2,4-dioxoimidazolidin-1-yl)-6-oxo-5,6-dihydropyrido[2,3-b]pyrazine-7-carboxamide]: in data set [1], the 50% effective concentration (EC50) was less than 1 µM. Further, the IC50 is less than 1 µM in data set [2] and less than 10 µM against hERG potassium channel. The CC50 at 4 days in data set [3] is greater than 40 µM.

For `CN(C)C(=O)CN1CCN(c2cnc3c(cc(C(=O)NCc4ccc(Cl)cc4)c(=O)n3CC(=O)N3CC(C)(F)C3)n2)C1=O` [Compound 21], the half-maximal effective concentration (EC50) in data set [1] was less than 1 µM. For the same compound, the figures for the IC50 (in data set [2]; on hERG potassium channel (setting [4])) were less than 1 µM and greater than 10 µM, respectively. In data set [3], this compound had a half-maximal cytotoxic concentration (CC50) at 4 days greater than 40 µM.
